One assay concerns mouse's tail. Kind of assay: animal or person. The assay is classed as in vivo, Swiss albino mice. The following applies: sc.
The subject of assay [1] is hot-plate assay in mouses. Kind of assay: hot-plate assay in mice. The following applies: ip, hot plate 55° C., licking of the paws. In kind it is in vivo, Swiss albino mice. As to the method: The analgesic activity of the products object of the invention have been studied in several assays using the Swiss albino mice as the experimental animal. The assay of contortions induced by phenylbenzoquinone, the hot-plate assay and the hot-point assay are now described. The examples that are presented by way of illustration describe some of the pharmacological assays and should not limit the scope of the invention in any way.
The hot-plate assay was carried out following the method described by M. Ocana et al. (Europ J. Pharmacol. 186: 377-378, 1990). The product under study was administered s.c. or i.p. and 30 minutes later the analgesic effect was registered. For this the animals were placed on a metallic surface kept at 50° C. or 55° C. and the time registered (latency) until the licked their hind legs and a jump. The analgesic activity was calculated at each dose, comparing the potency of the treated group with the control group. Using the results obtained the ED-50 was calculated.
In general terms: Hot-plate and tail-flick tests time the reaction to a heat stimulus.

The structures appear in SMILES notation.

The text below walks through data of USRE39113E1 (priority 1998, dated 2006).

With `C1=C(c2ccccc2)CCN(CCCCn2cccc2)C1` [Example 51a], it took a dose of 5 mg/kg to reach the 50% effect level in the assay on mouse's tail (ED50).

For `Clc1ccc(C2=CCN(CCCCn3ccnc3-c3ccccc3)CC2)cc1` [Example 63a], the ED50 in the assay on mouse's tail was 70 mg/kg.

As for `CC(C)=CCN1CCC2(C)c3cc(O)ccc3CC1C2C` (centres unmarked) [Pentazocine, reference compound], the “Δ Latency” value in assay [1] (10 mg/kg) came to 6 s.

As to `Clc1ccc(C2=CCN(CCCCn3cc(Cl)cn3)CC2)cc1` [Example 47a], the “Δ Latency” value in assay [1] (40 mg/kg) is 5 s.

Take `Brc1ccc(C2=CCN(CCCCn3cncn3)CC2)cc1` [Example 59a]: the ED50 with mouse's tail was determined as 60 mg/kg.

One may read the ED50 as the midpoint of the dose-response relation.
